Experiments:
anesthetized dog = experiment: Hemodynamic parameters in the anesthetized dog after intravenous infusion; format: in vivo; details: for effect on the heart rate: doses of 1, 2.5 and 5 μg/kg/min, in words; for Average arterial pressure / Heart rate / Renal art. flow / Renal resistances: measured 5 minutes after infusion, average ± SE
Text: Dopamine and epinine have been compared after intravenous infusion at different doses in the anesthetized dog.

[1] = test system: electrically stimulated median arteria of rabbit ear; experiment: Inhibition of contraction induced by electrical stimulation, median arteria of rabbit ear; details: for IC50: Oryctolagus cuniculus, concentrations between 0.01 and 10 μM, read-out: ED50 in inhibiting the contraction induced by electrical stimulation
[2] = less potent than adrenaline; cited from earlier work

Compound | effect on the heart rate (anesthetized dog) | Average arterial pressure (anesthetized dog; infusion 1.00 μg/kg/min) [mmHg] | Heart rate (anesthetized dog; infusion 1.00 μg/kg/min) | Renal art. flow (anesthetized dog; infusion 1.00 μg/kg/min) [mL/min] | Renal resistances (anesthetized dog; infusion 1.00 μg/kg/min) [mmHg/ml/min] | Average arterial pressure (anesthetized dog; infusion 2.50 μg/kg/min) [mmHg] | Heart rate (anesthetized dog; infusion 2.50 μg/kg/min) | Renal art. flow (anesthetized dog; infusion 2.50 μg/kg/min) [mL/min] | Renal resistances (anesthetized dog; infusion 2.50 μg/kg/min) [mmHg/ml/min] | Average arterial pressure (anesthetized dog; infusion 5.00 μg/kg/min) [mmHg] | Heart rate (anesthetized dog; infusion 5.00 μg/kg/min) | Renal art. flow (anesthetized dog; infusion 5.00 μg/kg/min) [mL/min] | Renal resistances (anesthetized dog; infusion 5.00 μg/kg/min) [mmHg/ml/min] | IC50 [1] [nM] | Average arterial pressure (anesthetized dog; infusion 0.50 μg/kg/min) [mmHg] | Heart rate (anesthetized dog; infusion 0.50 μg/kg/min) | Renal art. flow (anesthetized dog; infusion 0.50 μg/kg/min) [mL/min] | Renal resistances (anesthetized dog; infusion 0.50 μg/kg/min) [mmHg/ml/min] | activity relative to dopamine (presynaptic DA2 receptors) ([1]; higher than that of dopamine) [times] | pressor potency relative to adrenaline [2]
NCCc1ccc(O)c(O)c1 [dopamine, reference compound] | slightly increased | 106 ± 7 | 144 ± 10 | 127 ± 20.8 | 1.120 ± 0.149 | 105 ± 6 | 146 ± 8 | 132 ± 21.0 | 1.053 ± 0.146 | 109 ± 6 | 151 ± 8 | 122.9 ± 19.8 | 1.136 ± 0.261 | 2390 |  |  |  |  |  | 
CNCCc1ccc(O)c(O)c1 [epinine, N-methyl-3,4-dihydroxyphenethylamine] | moderate but significant reduction | 136 ± 8 | 161 ± 11 | 157.5 ± 28.1 | 0.971 ± 0.185 | 135 ± 7 | 156 ± 12 | 159.8 ± 29.3 | 0.954 ± 0.183 | 139 ± 6 | 149 ± 11 | 164.3 ± 29.7 | 0.965 ± 0.181 | 77 | 136 ± 9 | 164 ± 10 | 153.5 ± 18.5 | 0.990 ± 0.145 | 30 | about ten

Reference: US4628064A, “Epinine and the therapeutic use thereof” (SIMES, Societa Italiana Medicinali e Sintetici S.p.A., priority 1983, dated 1986)
